In patent US20240336566A1, “CRYSTALLINE FORMS OF A COMPOUND FOR THE TARGETED DEGRADATION OF THE ANDROGEN RECEPTOR” (Arvinas Operations, Inc., priority 2023, published 2024):
Values after ≈ are worked out from the molar mass of the structure shown.

What was measured:
Type in all cases: physicochemical
[1] = Competitive slurry experiments of free base Patterns 1, 2 and 6 (XRPD); conditions: slurries of Patterns 1, 2 and 6; ambient or 40° C.
Procedure: XRPD analysis of the second set of competitive slurry experiments was carried out on a Philips X'Pert Pro Multipurpose diffractometer equipped with a spinning stage autosampler. The samples were scanned between 5 and 34.997 °2θ using Cu K radiation (α1γ=1.54060 Å; α2=1.54443 Å; β=1.39225 Å; α1:α2 ratio=0.5) running in Bragg-Brentano geometry (step size 0.008 °2θ, step time 10.160 s, rotation period 2 s) using 40 kV/40 mA generator settings. Data were visualized and images generated using the HighScore Plus 4.7 desktop application (PANalytical, 2θ17).
• Eight samples were prepared containing 10 mg of free base Patterns 1, 2, and 6. • The appropriate solvent systems were added and observations were noted. • After shaking at either ambient or 40° C., observations were noted and the samples were filtered centrifugally. The solids obtained were analyzed by XRPD.
• Due to inconclusive results, the solids were returned to the sample vials and 100 μL of the appropriate solvent was added to each sample. The samples were then capped and sealed by parafilm and shaken at ambient or 40° C. as before. • After shaking for 72 hours, the solids were analyzed by XRPD. […]

[2] = Heating experiment of Compound A free base Pattern 1 (1H NMR after heating to 250° C.); conditions: heated to 250° C. using the TG/DSC
[3] = Dynamic vapour sorption (DVS) with XRPD of retained solid
Procedure: 10-20 mg of sample was placed into a mesh vapour sorption balance pan and loaded into a DVS-1 dynamic vapour sorption balance by Surface Measurement Systems. The sample was subjected to a ramping profile from 40-90% relative humidity (RH) at 10% increments, maintaining the sample at each step until a stable weight had been achieved (dm/dt 0.004%, minimum step length 30 minutes, maximum step length 500 minutes) at 25° C. After completion of the sorption cycle, the sample was dried using the same procedure to 0% RH and then a second sorption cycle back to 40% RH. Two cycles were performed. The weight change during the sorption/desorption cycles were plotted, allowing for the hygroscopic nature of the sample to be determined. XRPD analysis was then carried out on any solid retained.

[4] = 7-day stability assessment (appearance, HPLC, XRPD)
Procedure: The material was gently ground to release any agglomerates and loaded onto a multi-well plate with Kapton or Mylar polymer film to support the sample. […] Data were visualized and images generated using the HighScore Plus 4.7 desktop application (PANalytical, 2θ17).
They all remained white or off-white solids. • XRPD analysis determined the patterns were retained.

[5] = Thermodynamic solubility determination in buffers (HPLC)
From the text: No clear solubility advantage of the salts was noted over Compound A free base.

[6] = 7 days at 40° C./75% RH (open vial)
[7] = 7 days at Ambient light (closed vial)
[8] = Buffer pH 1.2, 25° C., cf concentration of free base, listed as Compound A Free Base Pattern 1
[9] = Buffer pH 3.0, 25° C., LOQ 0.00025 mg/mL
[10] = buffer, 25 °C, pH 4, aqueous buffer, thermodynamic from solid, Buffer pH 4.0, LOQ 0.00025 mg/mL

relative stability of forms (competitive slurry) [1]: thermodynamic form
degradation after heating (1H NMR) [2]: had not degraded
DVS hygroscopicity [3]: Slightly hygroscopic
Form change after DVS [3]: No
form by XRPD post DVS [3]: no form change
hygroscopic nature (DVS) ([3]; 25° C.): slightly hygroscopic
mass uptake of water (DVS) ([3]; RH not stated at the place): 1.17 wt. %
mass uptake of water (DVS), equivalents ([3]; RH not stated at the place): 0.53 eq.
DVS water uptake ([3]; at 90% RH): 1.17 wt. %
DVS water uptake (equivalents of water) ([3]; at 90% RH): 0.53 eq.
HPLC purity [4, 6]: 99.00 % relative area
XRPD after stability storage [4, 6]: No change
HPLC purity ([4]; 7 days at 40° C./75% RH (open vial), listed as Free base Pattern 1): 99.00 % relative area
HPLC purity ([4]; 7 days at 80° C. (closed vial)): 99.03 % relative area
XRPD after stability storage ([4]; 7 days at 80° C. (closed vial)): No change
HPLC purity ([4]; 7 days at 80° C. (closed vial), listed as Free base Pattern 1): 99.03 % relative area
HPLC purity [4, 7]: 99.07 % relative area
XRPD after stability storage [4, 7]: No change
HPLC purity ([4]; 7 days at Ambient light (closed vial), listed as Free base Pattern 1): 99.07 % relative area
Total impurities (HPLC) ([4]; after 7 days at 40° C./75% RH): 1.00 Rel. Area %
purity retained after stability storage (HPLC) ([4]; after 7 days at 40° C./75% RH (open vial), 80° C. (closed vial), ambient light (closed vial)): > 99 % relative area
Total impurities (HPLC) ([4]; after 7 days at 80° C.): 0.97 Rel. Area %
Total impurities (HPLC) ([4]; after 7 days at ambient): 0.93 Rel. Area %
Total impurities (HPLC) ([4]; before stability testing): 0.99 Rel. Area %
HPLC purity ([4]; before stability testing (condition N/A)): 99.01 % relative area
HPLC purity ([4]; before stability testing (condition N/A), listed as Free base Pattern 1): 99.01 % relative area
0 Hr Solubility [5, 8]: 0.1 µg/mL
4 Hr Solubility [5, 8]: 26.2 µg/mL
24 Hr Solubility [5, 8]: 69.3 µg/mL
0 Hr Solubility [5, 9]: <0.25 µg/mL
4 Hr Solubility [5, 9]: <0.25 µg/mL
24 Hr Solubility [5, 9]: <0.25 µg/mL
solubility at 0 h [5, 10]: < 0.25 µg/mL
solubility at 4 h [5, 10]: < 0.25 µg/mL
solubility at 24 h [5, 10]: < 0.25 µg/mL
thermodynamic solubility ([5]; pH 1.2, after 24 hours, 25° C., as concentration of Compound A free base): 69.3 µg/mL (≈ 85.8 µM)
SMILES: COc1cc(O[C@H]2C(C)(C)[C@H](NC(=O)c3ccc(N4CCC(CN5CCN(c6ccc(C(=O)N[C@H]7CCC(=O)NC7=O)c(F)c6)CC5)CC4)cc3)C2(C)C)ccc1C#N [free base Pattern 1]
